Among the data in ChEMBL document CHEMBL1155049, “Synthesis and cytotoxic activity of benzopyran-based platinum(II) complexes” (Bioorg Med Chem Lett, 2008) are IC50 values, retold here.

Holding throughout (type): functional, cell-based
A short description of assay [1]: Cytotoxicity against estrogen receptor deficient human MDA-MB-436 cells after 72 hrs by MTT assay. Particulars: MDA-MB-436, 72 h.
Assay [2] concerns MDA-MB-468. As to the kind of experiment: Cytotoxicity against estrogen receptor deficient human MDA-MB-468 cells after 72 hrs by MTT assay. Particulars: MDA-MB-468, 72 h.
Assay [3] deals with MCF7. In words: Cytotoxicity against human MCF7 cells expressing estrogen receptor after 72 hrs by MTT assay. The settings on record: MCF7, 72 h.
In assay [4] the test system is MDA-MB-231. In words: Cytotoxicity against estrogen receptor deficient human MDA-MB-231 cells after 72 hrs by MTT assay. The settings on record: MDA-MB-231, 72 h.

On to `COc1ccc2c(c1)OC(C)(C)[C@@H](c1ccccc1)[C@@H]2c1ccc(OCCCCCCNCCCc2ccccn2)cc1`, for which the IC50 amounted to 15.7 µM in assay [1], 7.61 µM in assay [2], 15.6 µM in assay [3] and 18.7 µM in assay [4].
